For one test, the system named is Rat hippocampal cells. Nature of the test: 14C-choline incorporation into PC in cultured hippocampal neurons. It counts as cell-based. The conditions noted are these: DHA+choline pre-treatment; 14C-choline 2 h; FIG. 10. On the procedure: Rat hippocampal cells were cultured for 3 weeks in Neutrobasal plus B27 medium, to reach full maturation. On the day of the experiment, cells were incubated with DMEM+choline, with or without added DHA. ^14C-choline was added, cells were incubated for an additional 2 h, and newly-formed ^14C-labeled PC was extracted and measured as described in Example 1.
To determine the effect of DHA on phospholipids in neurons in short-term culture, neurons were pre-treated with DHA+choline. […] These findings confirm that DHA increases phospholipid levels in brain and neural cells.

Another test relates to SHSY-5Y cells. Nature of the test: 14C-choline incorporation into phospholipids in SHSY-5Y cells. The test is classed as cell-based, human. The conditions noted are these: 10 μM fatty acid, 18 hr; FIG. 3A. As to the method:
SHSY-5Y cells were grown to near confluency in DMEM+10% FBS in 35 mm dishes. Cells were incubated for 18 hr in serum-free DMEM+1% FBS containing 30 μM choline+/−10 μM of DHA, arachidonic acid, or palmitic acid. Cells were then labeled, and labeled phospholipids were quantified as described for Example 1.
DHA was dissolved in ethanol to a […] concentration and frozen in 10 microliter aliquots at −80° C. For each experiment, one aliquot was diluted in ethanol to 10 micromolar; the volume giving the desired final solution in incubation medium was mixed with an equal volume of BSA solution (1 gm/ml).
The effect of omega-6 fatty acids on phospholipid synthesis was next examined in SHSY-5Y cells, a human neuroblastoma cell line. In this case, phospholipid synthesis was enhanced by arachidonic acid, an omega-6 fatty acid, but not by DHA or palmitic acid (FIG. 3A).
The effect of arachidonic acid on phospholipid synthesis in SHSY-5Y cells was further characterized as described for omega-3 fatty acids and PC-12 cells in Example 2.

A further test deals with brain CDP-choline levels. Nature of the test: Brain CDP-choline and CDP-ethanolamine levels in gerbils. The test is classed as in vivo, gerbil. Particulars: 28 days. From the text: FIGS. 5A and 5B. FIG. 5A illustrates the effect Effects of DHA on brain CDP-choline levels (FIG. 5A) and while FIG. 5B illustrates the effect of DHA on brain CDP-ethanolamine levels (FIG. 5B). Groups of 8 gerbils received either a control or a UMP-containing diet, and, by gavage, DHA (in a vehicle of 5% gum Arabic solution) or 5% gum Arabic solution alone for 28 days. On the 29th day brains were harvested and assayed for CDP-choline. Data are presented as means±SEM. Statistical analysis was performed using one- or two-way ANOVA followed by Tukey test. a: P<0.05 when compared with the values for control diet plus vehicle group; b: P<0.05 when compared with values for UMP diet plus vehicle group.
Aliquots (2 ml) of the upper (aqueous) phase were dried under a vacuum, reconstituted, and injected into an HPLC. The dried samples were reconstituted in 100-200 μl water and were analyzed by HPLC on an anion exchange column (Alltech Hypersil APS-2, […], 250×4.6 mm). CDP-choline was eluted with a linear gradient of buffers A (H3PO4, 1.75 mM, pH 2.9) and B (NaH2PO2, 500 mM, pH 4.5) from 0 to 100% B over period of 30 min. With this system, CDP-choline was resolved from closely co-eluting substances such as UMP in an isocratic system over a period of 40 min. The retention time for CDP-choline was 9.5 min. The column was washed with buffer B at the end of each experiment and every several days to remove retained nucleotides. Individual nucleotide peaks were detected by UV absorption at 280 nm and were identified by comparison with the positions of authentic standards, as well as by the addition of nucleotide standards to samples.
To determine the effect of PUFA administration on CDP-choline levels, brain CDP-choline levels were measured in the animals from the previous Example. Administration of DHA and/or UMP decreased CDP-choline levels (FIG. 5A) and CDP-ethanolamine levels (FIG. 5B). DHA reduced CDP-choline levels by 26% (compared with those receiving just the control diet and DHA's vehicle), and in UMP-treated gerbils by 21% (compared with those receiving UMP-containing diet and DHA's vehicle) (both P<0.05).

Regarding `CCC=CCC=CCC=CCC=CCC=CCC=CCCC(=O)O` [DHA, 4,7,10,13,16,19-docosahexaenoic acid], the “Increase in synthesis of phospholipids relative to cells administered choline alone” value in the test on Rat hippocampal cells is on record as “more than 2 fold”. The Phospholipid synthesis enhanced result with SHSY-5Y cells is listed as “not”. Also, in the test on brain CDP-choline levels, the “CDP-choline levels (FIG. 5A)” value is “decreased” and the “CDP-ethanolamine levels (FIG. 5B)” value is reported as “decreased”.

These data come from patent US10736912B2, “Compositions containing PUFA and/or uridine and methods of use thereof” (MASSACHUSETTS INSTITUE OF TECHNOLOGY, priority 2005, dated 2020).
